SMILES strings stand for the structures.

This data set is described as follows: Multiple-dose PK of API-in-capsule formulation BID for 10 days in healthy human subjects. It is filed as in vivo. As for the experimental part:
The mean CSF to unbound plasma ratio was about 1.0. Data shown is from 25, 80, and100 mg BID multiple dose cohorts.
Formula I compound was administered to healthy young human subjects as an API-in- capsule formulation at doses of 25 mg, 40 mg, 80 mg and 100 mg BID, and to healthy elder subjects at 80 mg BID. Formula I compound concentrations were determined on Day 1 and 10 and at trough on selected day during the 10 days of administration. […] The terminal half-life, and plasma concentrations and pS935 inhibition at trough (minima) are consistent with twice-daily administration as an efficacious regimen.
[…] variability in the ratio was seen because of the parallel (non-crossover) nature of the study design. […] Physiologically-based PK modelling, was used to predict the Cmax/Cmin ratio for MUPS formulations contain various amounts of KOLLICOAT® polymer.

A word on the half-life: it is the time in which the quantity being followed falls by half. Take `CNc1nc(Nc2cn(C(C)(C)C#N)nc2C)ncc1C(F)(F)F` [Formula I compound, 2-methyl-2-(3-methyl-4-(4-(methylamino)-5-(trifluoromethyl)pyrimidin-2-ylamino)-1H-pyrazol-1-yl)propanenitrile]: the “plasma Cmax and AUC versus dose” value (25 to 100 mg BID dose range) was “dose-proportional”. In addition, where the note is “human, CSF / unbound plasma, oral, healthy young and healthy elderly, Day 10, 25, 80 and 100 mg BID immediate release capsule, read-out: mean CSF to unbound plasma ratio”, the Kp at 10 day was roughly 1. Besides, the half-life (human, plasma, oral, postdose Day 10, 25-100 mg BID, read-out: terminal half-life in plasma) was 14 to 26 h.

For the origin of these results see patent publication US20220249479A1, “MODIFIED RELEASE FORMULATION OF A PYRIMIDINYLAMINO-PYRAZOLE COMPOUND, AND METHODS OF TREATMENT” (DENALI THERAPEUTICS INC., priority 2019, published 2022).
